Measured values published in US20040209318A1, “Reagents and methods for the detection and quantification of vancomycin in bilogical fluids” (priority 1995, published 2004).

Key:
[1] = target: anti-vancomycin Fab fragment; assay: BIAcore solution competition, equilibrium dissociation constant; type: binding, mouse; details: in solution, 20 nM Fab fragment; read-out: Equilibrium Dissociation Constant (KD)
Experimental: Biosensor surfaces were regenerated after each injection with successive 1 minute pulses of 6 M, 6M, and 1.5 M guanidine hydrochloride. Initial rates of binding of anti-vancomycin Fab fragment to the biosensor surface were measured over a 15 second window beginning 20 seconds postinjection. Data was evaluated by non-linear regression analysis using the solution affinity model built into BIAevaluation 3.0 software (BIAcore, Inc).
The binding affinities of several vancomycin analogs and tracers for anti-vancomycin Fab fragment were determined from solution competition experiments carried out on a BIAcore 2000. Initially, known concentrations of anti-vancomycin Fab fragment (0-22 nM) were injected over the aminoalkyl vancomycin biosensor surface. The initial rate of binding for each anti-vancomycin Fab fragment concentration was obtained by averaging the observed binding rate over a […] window beginning 20 seconds post injection. Data from the first 20 seconds of each sensorgram were omitted due to sample dispersion effects at the start of injections. A plot of initial binding rate versus concentration of anti-vancomycin Fab fragment was fit using a 4-parameter logistic (general model in BIAevaluation 3.0) providing a standard curve. […] A fixed concentration of anti-vancomycin Fab fragment (20 nM) was then mixed with twelve concentrations of each vancomycin analog or tracer and allowed to reach equilibrium. The equilibrium mixtures were individually injected over the aminoalkyl vancomycin biosensor surface, and the concentration of free anti-vancomycin Fab fragment remaining was quantitated by determination of the initial rate of binding to the biosensor surface as described above. A plot of free anti-vancomycin Fab fragment versus total concentration of added analog or tracer provides a competition curve. […] The data points represent the experimentally determined concentrations of free anti-vancomycin Fab fragment in equilibrium solutions at a given concentration of soluble analog or tracer. The curves represent the best nonlinear fit of the data using equation 1 (solution affinity model in BIAevaluation software) below: [formula]
where Fabτ is the concentration of free anti-vancomycin Fab fragment in equilibrium solutions, Fabτ is the total concentration of anti-vancomycin Fab fragment in solution (20 nM), A is the total concentration of added vancomycin analog or tracer, and KD is the equilibrium dissociation constant for the binding of the vancomycin analog or tracer to anti-vancomycin Fab fragment in solution.

[2] = test system: monoclonal antibody #15-109-592; assay: Fluorescence polarization immunoassay of the present invention, cross reactivity; type: binding, mouse; details: for PRESENT INVENTION VALUES / PRESENT INVENTION cross reactivity: 0 ug/mL vancomycin
[3] = test system: sheep polyclonal antibodies against vancomycin; assay: commercially available Abbott Vancomycin assay (TDX/TDXFLX FPIA), cross reactivity; type: binding; details: for COMMERCIAL ASSAY VALUES / COMMERCIAL ASSAY cross reactivity: 0 ug/mL vancomycin
Description: Commercially available fluorescent polarization assays (FPIA) for vancomycin are available. For instance, commercially available assays (Abbott […]® assays, (hereinafter referred to as the “commercially available Abbott Vancomycin assays(s)”)) include reagents for the quantitative measurement of vancomycin in serum or plasma samples. These assays use a vancomycin derivative labeled with a dichlorotriazinylaminofluorescein (DTAF) (hereinafter referred to as the “commercially available tracer”), and sheep polyclonal antibodies against vancomycin (hereinafter referred to as “commercially available antibodies”). […] In contrast, the commercially available vancomycin assay has elevated levels of CDP-I cross reactivity ranging from 39.58% to 65% with or without vancomycin present. […] (Refer to Table 3 for CDP-I cross-reactivity data.)

[4] = 40 ug/mL vancomycin, 1 ug/mL CDP-I
[5] = 40 ug/mL vancomycin, 10 ug/mL CDP-I
[6] = 40 ug/mL vancomycin, 50 ug/mL CDP-I
[7] = 40 ug/mL vancomycin, 100 ug/mL CDP-I
[8] = 80 ug/mL vancomycin, 1 ug/mL CDP-I
[9] = 80 ug/mL vancomycin, 10 ug/mL CDP-I
[10] = 80 ug/mL vancomycin, 50 ug/mL CDP-I
[11] = 80 ug/mL vancomycin, 100 ug/mL CDP-I

Molecule: CNC(CC(C)C)C(=O)NC1C(=O)NC(CC(N)=O)C(=O)NC2C(=O)NC3C(=O)NC(C(=O)NC(C(=O)O)c4cc(O)cc(O)c4-c4cc3ccc4O)C(O)c3ccc(c(Cl)c3)Oc3cc2cc(c3OC2OC(CO)C(O)C(O)C2OC2CC(C)(NC(=O)CCCN(C(=O)c3c4ccccc4[n+](CCCS(=O)(=O)[O-])c4ccccc34)S(=O)(=O)c3ccc(C)cc3)C(O)C(C)O2)Oc2ccc(cc2Cl)C1O (stereo not drawn) [compound 15]
- Kd [1]: 1200 ± 100 nM

Molecule: N-acetylvancosaminylvancomycin [compound 7]
- Kd [1]: ≤ 0.2 nM

Molecule: Ring-2 dechlorovancomycin [compound 8]
- Kd [1]: 87 ± 4 nM

Molecule: CNC(CC(C)C)C(=O)NC1C(=O)NC(C(=O)O)CC(=O)NC2C(=O)NC3C(=O)NC(C(=O)NC(C(=O)O)c4cc(O)cc(O)c4-c4cc3ccc4O)C(O)c3ccc(c(Cl)c3)Oc3cc2cc(c3OC2OC(CO)C(O)C(O)C2OC2CC(C)(N)C(O)C(C)O2)Oc2ccc(cc2Cl)C1O (stereo not drawn) [CDP-I, Crystalline Degradation Product I]
- PRESENT INVENTION VALUES ([2]; CDP-I 1 ug/mL): 0.22 µg/mL
- PRESENT INVENTION cross reactivity ([2]; CDP-I 1 ug/mL): N.D. (Less than sensitivity at 2.00 ug/mL vancomycin)
- PRESENT INVENTION VALUES ([2]; CDP-I 2.5 ug/mL): 0.15 µg/mL
- PRESENT INVENTION cross reactivity ([2]; CDP-I 2.5 ug/mL): N.D. (Less than sensitivity at 2.00 ug/mL vancomycin)
- PRESENT INVENTION VALUES ([2]; CDP-I 5 ug/mL): 0.26 µg/mL
- PRESENT INVENTION cross reactivity ([2]; CDP-I 5 ug/mL): N.D. (Less than sensitivity at 2.00 ug/mL vancomycin)
- PRESENT INVENTION VALUES ([2]; CDP-I 7 ug/mL): LOW
- PRESENT INVENTION cross reactivity ([2]; CDP-I 7 ug/mL): N.D. (Less than sensitivity at 2.00 ug/mL vancomycin)
- PRESENT INVENTION VALUES ([2]; CDP-I 10 ug/mL): 0.13 µg/mL
- PRESENT INVENTION cross reactivity ([2]; CDP-I 10 ug/mL): N.D. (Less than sensitivity at 2.00 ug/mL vancomycin)
- PRESENT INVENTION VALUES ([2]; CDP-I 15 ug/mL): LOW
- PRESENT INVENTION cross reactivity ([2]; CDP-I 15 ug/mL): N.D. (Less than sensitivity at 2.00 ug/mL vancomycin)
- PRESENT INVENTION VALUES ([2]; CDP-I 20 ug/mL): 0.46 µg/mL
- PRESENT INVENTION cross reactivity ([2]; CDP-I 20 ug/mL): N.D. (Less than sensitivity at 2.00 ug/mL vancomycin)
- PRESENT INVENTION VALUES ([2]; CDP-I 25 ug/mL): 0.18 µg/mL
- PRESENT INVENTION cross reactivity ([2]; CDP-I 25 ug/mL): N.D. (Less than sensitivity at 2.00 ug/mL vancomycin)
- PRESENT INVENTION VALUES ([2]; CDP-I 50 ug/mL): 0.67 µg/mL
- PRESENT INVENTION cross reactivity ([2]; CDP-I 50 ug/mL): N.D. (Less than sensitivity at 2.00 ug/mL vancomycin)
- PRESENT INVENTION [2, 4]: 40.86 µg/mL
- PRESENT INVENTION % C.R. [2, 4]: N.D. (Less than sensitivity at 2.00 ug/mL vancomycin)
- PRESENT INVENTION Diff/Sample-Control [2, 4]: -0.20 µg/mL
- PRESENT INVENTION [2, 5]: 40.50 µg/mL
- PRESENT INVENTION % C.R. [2, 5]: N.D. (Less than sensitivity at 2.00 ug/mL vancomycin)
- PRESENT INVENTION Diff/Sample-Control [2, 5]: -0.54 µg/mL
- PRESENT INVENTION [2, 6]: 39.13 µg/mL
- PRESENT INVENTION % C.R. [2, 6]: N.D. (Less than sensitivity at 2.00 ug/mL vancomycin)
- PRESENT INVENTION Diff/Sample-Control [2, 6]: -0.14 µg/mL
- PRESENT INVENTION [2, 7]: 37.22 µg/mL
- PRESENT INVENTION % C.R. [2, 7]: N.D. (Less than sensitivity at 2.00 ug/mL vancomycin)
- PRESENT INVENTION Diff/Sample-Control [2, 7]: 0.24 µg/mL
- PRESENT INVENTION % C.R. [2, 8]: N.D. (Less than sensitivity at 2.00 ug/mL vancomycin)
- PRESENT INVENTION Diff/Sample-Control [2, 8]: -0.64 µg/mL
- PRESENT INVENTION [2, 9]: 79.49 µg/mL
- PRESENT INVENTION % C.R. [2, 9]: N.D. (Less than sensitivity at 2.00 ug/mL vancomycin)
- PRESENT INVENTION Diff/Sample-Control [2, 9]: -0.50 µg/mL
- PRESENT INVENTION [2, 10]: 74.41 µg/mL
- PRESENT INVENTION % C.R. [2, 10]: N.D. (Less than sensitivity at 2.00 ug/mL vancomycin)
- PRESENT INVENTION Diff/Sample-Control [2, 10]: -0.83 µg/mL
- PRESENT INVENTION [2, 11]: 71.22 µg/mL
- PRESENT INVENTION % C.R. [2, 11]: N.D. (Less than sensitivity at 2.00 ug/mL vancomycin)
- PRESENT INVENTION Diff/Sample-Control [2, 11]: -0.26 µg/mL
- cross-reactivity ([2]; vancomycin 0, 40, 80 μg/mL, cross reactants 0, 1, 10, 50, 100 μg/mL): less than 2%
- COMMERCIAL ASSAY VALUES ([3]; CDP-I 1 ug/mL): 0.92 µg/mL
- COMMERCIAL ASSAY cross reactivity ([3]; CDP-I 1 ug/mL): N.D. (Less than sensitivity at 2.00 ug/mL vancomycin)
- COMMERCIAL ASSAY VALUES ([3]; CDP-I 2.5 ug/mL): 1.61 µg/mL
- COMMERCIAL ASSAY cross reactivity ([3]; CDP-I 2.5 ug/mL): N.D. (Less than sensitivity at 2.00 ug/mL vancomycin)
- COMMERCIAL ASSAY VALUES ([3]; CDP-I 5 ug/mL): 3.25 µg/mL
- COMMERCIAL ASSAY cross reactivity ([3]; CDP-I 5 ug/mL): 65%
- COMMERCIAL ASSAY VALUES ([3]; CDP-I 7 ug/mL): 4.54 µg/mL
- COMMERCIAL ASSAY cross reactivity ([3]; CDP-I 7 ug/mL): 64.86%
- COMMERCIAL ASSAY VALUES ([3]; CDP-I 10 ug/mL): 6.42 µg/mL
- COMMERCIAL ASSAY cross reactivity ([3]; CDP-I 10 ug/mL): 64.2%
- COMMERCIAL ASSAY VALUES ([3]; CDP-I 15 ug/mL): 8.87 µg/mL
- COMMERCIAL ASSAY cross reactivity ([3]; CDP-I 15 ug/mL): 59.13%
- COMMERCIAL ASSAY VALUES ([3]; CDP-I 20 ug/mL): 11.04 µg/mL
- COMMERCIAL ASSAY cross reactivity ([3]; CDP-I 20 ug/mL): 55.20%
- COMMERCIAL ASSAY VALUES ([3]; CDP-I 25 ug/mL): 12.94 µg/mL
- COMMERCIAL ASSAY cross reactivity ([3]; CDP-I 25 ug/mL): 51.76%
- COMMERCIAL ASSAY VALUES ([3]; CDP-I 50 ug/mL): 19.79 µg/mL
- COMMERCIAL ASSAY cross reactivity ([3]; CDP-I 50 ug/mL): 39.58%
- COMMERCIAL ASSAY [3, 4]: 39.99 µg/mL
- COMMERCIAL ASSAY % C.R. [3, 4]: N.D. (Less than sensitivity at 2.00 ug/mL vancomycin)
- COMMERCIAL ASSAY Diff/Sample-control [3, 4]: 1.05 µg/mL
- COMMERCIAL ASSAY [3, 5]: 43.74 µg/mL
- COMMERCIAL ASSAY % C.R. [3, 5]: 48%
- COMMERCIAL ASSAY Diff/Sample-control [3, 5]: 4.80 µg/mL
- COMMERCIAL ASSAY [3, 6]: 55.49 µg/mL
- COMMERCIAL ASSAY % C.R. [3, 6]: 36.66%
- COMMERCIAL ASSAY Diff/Sample-control [3, 6]: 18.33 µg/mL
- COMMERCIAL ASSAY [3, 7]: 67.35 µg/mL
- COMMERCIAL ASSAY % C.R. [3, 7]: 30.85%
- COMMERCIAL ASSAY Diff/Sample-control [3, 7]: 30.85 µg/mL
- COMMERCIAL ASSAY [3, 8]: 78.85 µg/mL
- COMMERCIAL ASSAY % C.R. [3, 8]: N.D. (Less than sensitivity at 2.00 ug/mL vancomycin)
- COMMERCIAL ASSAY Diff/Sample-control [3, 8]: -0.68 µg/mL
- COMMERCIAL ASSAY [3, 9]: 83.34 µg/mL
- COMMERCIAL ASSAY % C.R. [3, 9]: 38.1%
- COMMERCIAL ASSAY Diff/Sample-control [3, 9]: 3.81 µg/mL
- COMMERCIAL ASSAY % C.R. [3, 10]: HI ((>100))
- COMMERCIAL ASSAY Diff/Sample-control [3, 10]: HI ((>100))
- COMMERCIAL ASSAY ug/mL [3, 10]: HI ((>100))
- COMMERCIAL ASSAY % C.R. [3, 11]: HI ((>100))
- COMMERCIAL ASSAY Diff/Sample-control [3, 11]: HI ((>100))
- COMMERCIAL ASSAY ug/mL [3, 11]: HI ((>100))
